US20250382305A1 (PTC THERAPEUTICS, INC., priority 2022, published 2025)

Key:
[1] = tested on: Total ATXN3 (tATXN3) protein; test: Endogenous Total ATXN3 (tATXN3) Protein Assay (MSD immunoassay of cell lysates); type: cell-based; conditions: average IC50, total ATXN3 protein in cell lysate after 48 h with compound (Table 1)
Protocol: Endogenous Total ATXN3 (tATXN3) Protein Assay
Meso Scale Discovery (MSD) 96-well or 384-well plates were coated overnight at 4° C. with Ataxin 3 mouse monoclonal antibody (Invitrogen, MA3-082) at a concentration of 0.5 μg/mL in PBS (30 μL per well). Plates were then washed three times with 300 μL wash buffer (0.05% TWEEN®-20, polyethylene glycol sorbitan monolaurate, in PBS) and blocked (Meso Scale Diagnostics, R93BA-1; 5% BSA in PBS) for 2 h at RT with rotational shaking and then washed three times with wash buffer.
(§1) Test compounds were serially diluted 3.16-fold in 100% DMSO to generate a 7-point concentration curve. Aliquots of 0.5 μL of diluted compounds were transferred to a 96-well flat bottom plate by a liquid handler. An aliquot of 0.5 μL DMSO was also transferred to separate wells and used as controls. Duplicate samples were set up for each compound concentration and for the DMSO control.
Cells were thawed and incubated in cell culture media (DMEM, 10% FBS, and 1% antibiotic cocktail) for 72 h. Cells were trypsinized, counted, and re-suspended to a concentration of 100,000 cells/mL in cell culture media. A 100 μL aliquot of the cell suspensions were plated at 10,000 cells per well in the compound containing 96 well microtiter plate and incubated for in a cell culture incubator (37° C., 5% CO2, 100% relative humidity). After 48 h, the medium was removed and 50-100 μL of lysis buffer (Meso Scale Diagnostics, R60TX-2) containing 1× halt protease inhibitor cocktail of (Thermo Scientific, Halt™ Protease Inhibitor Cocktail, 78430) per well was added to cells to provide a “cell lysate”. The plate was placed on a shaker at 4° C. for 30 minutes, then stored at −80° C.
Cell lysate samples (25 μL) were transferred to the antibody-coated MSD plate and incubated overnight at 4° C. After removal of the lysates, the plate was washed three times with wash buffer, and 25 μL of Ataxin 3 recombinant rabbit monoclonal antibody (Invitrogen, #702788) secondary antibody (diluted to 0.25 μg/mL in 0.05% TWEEN®-20 in blocking buffer) was added to each well and incubated with shaking for 1-2 h at room temperature. Following incubation with the secondary antibody, the wells were rinsed with wash buffer and then 25 μL of Anti Rabbit Antibody Goat SULFO-TAG Labeled (Meso Scale Diagnostics, R32AB-1) detecting antibody (diluted to […] in 0.05% TWEEN®-20 in blocking buffer) was added to each well and incubated with shaking for 1 h at room temperature. After rinsing three times with wash buffer, 150 μL of Read Buffer T with surfactant (tris-based buffer containing tripropylamine, Meso Scale Diagnostics, R92TC-1) were added to each empty well, and the plate was imaged on a SI 6000 imager (MSD) according to manufacturers' instructions provided for 96- or 384-well plates.
(§2) An average IC50>1 μM is indicated by one star (*), between >0.3 μM and ≤1 μM is indicated by two stars (**), between >0.03 μM and ≤0.3 μM is indicated by three stars (***), and ≤0.03 μM is indicated by four stars (****).

ATXN3 pre-mRNA = test: RT-qPCR Assay to Quantify Exon 4 Skipping in ATXN3 pre-mRNA in Cells; type: cell-based; conditions: percent exon 4 skipping in ATXN3 pre-mRNA, RT-qPCR of cell lysates; average IC50
Protocol: RT-qPCR Assay to Quantify Exon 4 Skipping in ATXN3 pre-mRNA in Cells
as §1
Cells were thawed and incubated in cell culture media (DMEM, 10% FBS, and 1% antibiotic cocktail) for 72 h. Cells were trypsinized, counted, and re-suspended to a concentration of 100,000 cells/mL in cell culture media. A 100 μL aliquot of the cell suspensions were plated at 10,000 cells per well in the compound containing 96 well microtiter plate and incubated for in a cell culture incubator (37° C., 5% CO2, 100% relative humidity).
After 24 h, media was aspirated from the cells and 50 μL of the RCL2 lysis buffer (10 mM Tris-HCL pH 7.4, 150 mM NaCl, 0.33% IGEPAL® CA-630) was added to each well and incubated at RT for 1 min. Chilled nuclease free water (50 μL per well) was added and the plates were immediately transferred on ice. After 1 min on ice, plates were frozen at −80° C. overnight.
Preparation of RT-qPCR Reaction Mixture:
An aliquot of 2 μL/well of the cell lysates was transferred using the liquid handler to the Armadillo 384-Well PCR plate containing 8 μL/well of the RT-qPCR reaction mixture that was prepared as detailed above. The plates were then sealed with MicroAmp™ Optical Adhesive Film followed by spinning down for 1 min and placed in the CFX384 thermocycler (BioRad).
The RT-qPCR was carried out at the following temperatures for the indicated time: • Step 1: 48° C. (30 min) • Step 2: 95° C. (10 min) • Step 3: 95° C. (15 sec) • Step 4: 60° C. (1 min); then, repeated Steps 3 and 4 for a total of 40 cycles.
The percent exon 4 skipping was calculated for each dose of compound treatment using Equations 1 and 2.
Data were fit to a dose response curve and the IC50 was interpolated using XLfit® statistical and curve fitting package.
as §2

| Substance | IC50 [1] | IC50 (ATXN3 pre-mRNA) |
| --- | --- | --- |
| 2-((2R,3R)-3-aminotetrahydrofuran-2-yl)-3-bromo-5-chloro-N-(thiophen-2-ylmethyl)thieno[3,2-b]pyridin-7-amine and 2-((2S,3S)-3-aminotetrahydrofuran-2-yl)-3-bromo-5-chloro-N-(thiophen-2-ylmethyl)thieno[3,2-b]pyridin-7-amine [Compound 151] | 30 to 300 nM | 30 to 300 nM |
| 2-((2R,3R,5R)-3-amino-5-methyltetrahydro-2H-pyran-2-yl)-3-bromo-5-chloro-N-(thiophen-2-ylmethyl)thieno[3,2-b]pyridin-7-amine and 2-((2S,3S,5S)-3-amino-5-methyltetrahydro-2H-pyran-2-yl)-3-bromo-5-chloro-N-(thiophen-2-ylmethyl)thieno[3,2-b]pyridin-7-amine [Compound 284] | 30 to 300 nM | 30 to 300 nM |
| 2-((2R,3S)-3-aminopiperidin-2-yl)-3-bromo-5-chloro-N-(thiophen-2-ylmethyl)thieno[3,2-b]pyridin-7-amine and 2-((2S,3R)-3-aminopiperidin-2-yl)-3-bromo-5-chloro-N-(thiophen-2-ylmethyl)thieno[3,2-b]pyridin-7-amine [Compound 46] | > 1000 nM | > 1000 nM |
| 2-((2R,3S)-3-aminotetrahydrofuran-2-yl)-3-bromo-5-chloro-N-(thiophen-2-ylmethyl)thieno[3,2-b]pyridin-7-amine and 2-((2S,3R)-3-aminotetrahydrofuran-2-yl)-3-bromo-5-chloro-N-(thiophen-2-ylmethyl)thieno[3,2-b]pyridin-7-amine [Compound 150] | 30 to 300 nM | 30 to 300 nM |
| 2-((3R,4R)-3-aminotetrahydro-2H-pyran-4-yl)-3-bromo-5-chloro-N-(thiophen-2-ylmethyl)thieno[3,2-b]pyridin-7-amine and 2-((3S,4S)-3-aminotetrahydro-2H-pyran-4-yl)-3-bromo-5-chloro-N-(thiophen-2-ylmethyl)thieno[3,2-b]pyridin-7-amine [Compound 146] | > 1000 nM | > 1000 nM |
| 2-((3R,4S)-3-aminotetrahydro-2H-pyran-4-yl)-3,5-dichloro-N-(furan-2-ylmethyl)thieno[3,2-b]pyridin-7-amine and 2-((3S,4R)-3-aminotetrahydro-2H-pyran-4-yl)-3,5-dichloro-N-(furan-2-ylmethyl)thieno[3,2-b]pyridin-7-amine [Compound 314] | 30 to 300 nM | 30 to 300 nM |
| 2-((3R,4S)-3-aminotetrahydro-2H-pyran-4-yl)-3-bromo-5-chloro-N-(furan-2-ylmethyl)thieno[3,2-b]pyridin-7-amine and 2-((3S,4R)-3-aminotetrahydro-2H-pyran-4-yl)-3-bromo-5-chloro-N-(furan-2-ylmethyl)thieno[3,2-b]pyridin-7-amine [Compound 316] | 30 to 300 nM | 30 to 300 nM |
| 2-((3R,4S)-3-aminotetrahydro-2H-pyran-4-yl)-5-chloro-3-(prop-1-yn-1-yl)-N-(thiophen-2-ylmethyl)thieno[3,2-b]pyridin-7-amine and 2-((3S,4R)-3-aminotetrahydro-2H-pyran-4-yl)-5-chloro-3-(prop-1-yn-1-yl)-N-(thiophen-2-ylmethyl)thieno[3,2-b]pyridin-7-amine [Compound 227] | ≤ 30 nM | ≤ 30 nM |
| 2-((3R,4S)-3-aminotetrahydro-2H-pyran-4-yl)-5-chloro-3-iodo-N-(thiophen-2-ylmethyl)thieno[3,2-b]pyridin-7-amine and 2-((3S,4R)-3-aminotetrahydro-2H-pyran-4-yl)-5-chloro-3-iodo-N-(thiophen-2-ylmethyl)thieno[3,2-b]pyridin-7-amine [Compound 275] | 30 to 300 nM | 30 to 300 nM |
| 2-((3R,4S)-3-aminotetrahydro-2H-pyran-4-yl)-5-chloro-7-((thiophen-2-ylmethyl)amino)thieno[3,2-b]pyridine-3-carbonitrile and 2-((3S,4R)-3-aminotetrahydro-2H-pyran-4-yl)-5-chloro-7-((thiophen-2-ylmethyl)amino)thieno[3,2-b]pyridine-3-carbonitrile [Compound 393] | 300 to 1000 nM | ≤ 30 nM |
| 2-((3R,4S)-3-aminotetrahydro-2H-pyran-4-yl)-5-chloro-N-(thiophen-2-ylmethyl)-3-vinylthieno[3,2-b]pyridin-7-amine and 2-((3S,4R)-3-aminotetrahydro-2H-pyran-4-yl)-5-chloro-N-(thiophen-2-ylmethyl)-3-vinylthieno[3,2-b]pyridin-7-amine [Compound 350] | 30 to 300 nM | 30 to 300 nM |
| 2-((3R,4S)-3-aminotetrahydro-2H-pyran-4-yl)-N-benzyl-3,5-dichlorothieno[3,2-b]pyridin-7-amine and 2-((3S,4R)-3-aminotetrahydro-2H-pyran-4-yl)-N-benzyl-3,5-dichlorothieno[3,2-b]pyridin-7-amine [Compound 388] | 30 to 300 nM | 30 to 300 nM |
| 2-((3R,4S)-4-aminotetrahydro-2H-pyran-3-yl)-3-bromo-5-chloro-N-(thiophen-2-ylmethyl)thieno[3,2-b]pyridin-7-amine and 2-((3S,4R)-4-aminotetrahydro-2H-pyran-3-yl)-3-bromo-5-chloro-N-(thiophen-2-ylmethyl)thieno[3,2-b]pyridin-7-amine [Compound 204] | ≤ 30 nM | ≤ 30 nM |
| 2-((4R,5S)-5-aminoazepan-4-yl)-3-bromo-5-chloro-N-(thiophen-2-ylmethyl)thieno[3,2-b]pyridin-7-amine and 2-((4S,5S)-5-aminoazepan-4-yl)-3-bromo-5-chloro-N-(thiophen-2-ylmethyl)thieno[3,2-b]pyridin-7-amine [Compound 148] | > 1000 nM | > 1000 nM |
| 3-bromo-5-chloro-2-((1R,2R)-2-(methylamino)cyclohexyl)-N-(thiophen-2-ylmethyl)thieno[3,2-b]pyridin-7-amine and 3-bromo-5-chloro-2-((1S,2S)-2-(methylamino)cyclohexyl)-N-(thiophen-2-ylmethyl)thieno[3,2-b]pyridin-7-amine [Compound 375] | 30 to 300 nM | 30 to 300 nM |
| 3-bromo-5-chloro-2-[(2R,3S)-3-aminotetrahydropyran-2-yl]-N-(2-thienylmethyl)thieno[3,2-b]pyridin-7-amine and 3-bromo-5-chloro-2-[(2S,3R)-3-aminotetrahydropyran-2-yl]-N-(2-thienylmethyl)thieno[3,2-b]pyridin-7-amine [Compound 20] | 30 to 300 nM | 30 to 300 nM |
